These results are taken from patent US20230073125A1, “PERIODONTAL MICROPATCH AND USES THEREOF” (priority 2019, published 2023).

Series [1] in a line: Cytokine loading and release from microparticles/microneedles in artificial saliva, ELISA. The series is classed as physicochemical. Conditions: 37° C., up to four weeks. From the text: For high quality periodontal treatment, the periodontal patch should act as an immunomodulator by delivering small molecules drugs and/or bioactive molecules to control infection (e.g., with antibiotics), modulate inflammation (e.g., FIG. 11A) and induce the recovery of alveolar bone. Here we used same method as described in Approach 1 to fabricate microneedles (FIG. 10A). IL-4- or TGF-β-loaded silica-heparin microparticles mixed with polymer (e.g., alginate) solution and cast into the molds to generate the microneedle patches. […] At selected time intervals (every 12 hour), the medium was collected and analyzed for released proteins using ELISA Kits. At the end of release study, the remaining proteins extracted from the particles/needles by dissolving them and the percentage of cumulative released proteins measured according to methods explained before. The released percentage measured based on the ratio of the amount released at each time point to the amount that was initially loaded. […]
The microneedle chemical formulation can be further modified for co-encapsulation of both small molecule antibiotics (encapsulated in PLGA NPs) and cytokines (encapsulated in alginate-heparin microparticles), which was integrated and addressed in Aim 3. […] At selected time intervals (every 12 hours), media was collected and analyzed for released proteins using ELISA. […]
A general note: An ELISA detects its analyte on a solid surface through an enzyme-linked reagent.

For another series, the system named is periodontal disease. The note with it: 40 ng local administration per treatment, rat model; cited from earlier work.
A further series has as its system M1 (and M0) macrophages. Nature of the series: Macrophage polarization, transwell, flow cytometry and qPCR. The format is cell-based, rat. The note with it: treatment with IL-4; qPCR of markers and cytokines. The procedure:
Costar transwell inserts (pore size 1 μm) was used for assessing the effectiveness of the released factor(s) on the polarization of macrophages and differentiation of T cells. Patches containing cytokines (4 experimental groups: no drug, IL-4 alone, TGF-β alone and IL-4/TGF-β) placed in the upper chamber. The bottom chamber contains artificial saliva modified media and 10^5 of either primary monocytes or naïve T cells or both (5×10^4). The isolation of primary monocytes was performed as described. Naïve T cells isolated using EasySep Rat T Cell Isolation Kit (STEMCELL Technologies) according to manufacturer's protocol. The change in macrophage phenotypes tested at different time points (day 1-5) using flow cytometry by checking the surface markers (M1): major histocompatibility complex class II (MHC II), CCR7, CD80 and CD86; M2: CD163 (M2c) and CD206 (M2a)). […] Quantitative PCR (qPCR) was used to determine the gene expression of these inflammatory cytokines and cellular markers (as exemplified in FIG. 11D). […] The expression of Foxp3 was measured by flow cytometry. […]
Costar transwell inserts (pore size 1 μm) were used to assess the effectiveness of released factor(s) on macrophage polarization and T cell differentiation. […] Quantitative PCR (qPCR) was used to determine gene expression of inflammatory cytokines and cellular markers (as exemplified in FIG. 23A-23B). […]
(In general: Flow cytometry measures light scatter and fluorescence of single cells or particles in a stream.)

The next series relates to naïve CD4+ T-cells. As to the kind of experiment: Induced Treg differentiation, Foxp3/CD25 by flow cytometry. The format is cell-based, rat. The note with it: soluble (no particles) TGF-β.

Description for naïve CD4+ T-cells: Activation and differentiation of T cells were tested by considering expression of CD25 surface activation marker (FIG. 11C) as well as intracellular expression of the transcription factor Foxp3. […] We also tested the ability of controlling differentiation of naïve T-cells into induced Treg by providing sustained release TGF-β from alginate-based particles. We cultured rigorously naïve CD4+ T-cells with anti-CD3 and anti-CD28 for 4 days in the wells containing the microparticles loaded with TGF-β at different concentrations and compared them to the soluble (no particles) counterparts at identical concentrations. The expression of Foxp3 was measured by flow cytometry. […] T cell activation and differentiation was tested by expression of CD25 surface activation marker and intracellular expression of the transcription factor Foxp3.

Regarding interleukin 4 [IL-4], the “cytokine release from designed platforms” value in series [1] was “prolonged release”. Moreover, in the series on periodontal disease, the bone regeneration entry is recorded as “helps regenerate bone” and the periodontal disease progression result is “reduces periodontal disease progression”. Besides, in the series on M1 (and M0) macrophages, the macrophage reprogramming result was “successful reprograming of M1 (and M0) macrophages toward M2”.

As to transforming growth factor beta [TGF-β], in the series with naïve CD4+ T-cells, the “Foxp3 expression at very high soluble concentrations” value is “plateaued and was even slightly suppressed”. Also, the “cytokine release from designed platforms” value in series [1] is recorded as “prolonged release”.
